Source: publication PMC5564600 (Oncotarget, 2017)

Assays:
Test in all cases: biochemical
Type in all cases: binding
panel of 442 kinases [1] = molecular target: T1, panel of 442 kinases (Homo sapiens, UniProt Q02156); details: kinase PRKCE; for remaining activity at 1 µM: read-out: PRKCE (% of control at 1 µM)
T1 construct: purchased Ambit Biosciences (scanMAXX KINOMEscan)
T1 sequence (Q02156 1-737): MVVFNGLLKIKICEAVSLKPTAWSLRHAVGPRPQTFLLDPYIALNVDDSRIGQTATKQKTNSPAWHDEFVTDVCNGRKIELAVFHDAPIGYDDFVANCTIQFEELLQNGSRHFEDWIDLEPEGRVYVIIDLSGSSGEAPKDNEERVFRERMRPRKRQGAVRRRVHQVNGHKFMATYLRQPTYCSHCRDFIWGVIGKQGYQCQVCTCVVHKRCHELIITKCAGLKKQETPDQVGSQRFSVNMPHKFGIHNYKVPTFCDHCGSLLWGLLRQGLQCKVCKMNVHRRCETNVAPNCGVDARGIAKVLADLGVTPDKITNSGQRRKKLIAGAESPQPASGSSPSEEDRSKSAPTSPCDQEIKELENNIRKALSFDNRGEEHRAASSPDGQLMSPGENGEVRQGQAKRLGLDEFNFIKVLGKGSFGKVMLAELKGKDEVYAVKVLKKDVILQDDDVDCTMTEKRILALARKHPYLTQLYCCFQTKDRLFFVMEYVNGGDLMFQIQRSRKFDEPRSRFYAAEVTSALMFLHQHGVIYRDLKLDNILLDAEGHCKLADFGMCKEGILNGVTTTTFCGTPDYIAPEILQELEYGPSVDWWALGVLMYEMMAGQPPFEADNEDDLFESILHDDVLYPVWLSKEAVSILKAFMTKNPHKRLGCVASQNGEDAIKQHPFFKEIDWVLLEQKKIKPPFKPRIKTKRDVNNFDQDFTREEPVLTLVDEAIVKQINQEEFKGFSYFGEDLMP

panel of 442 kinases [2] = molecular target: T2, panel of 442 kinases (Homo sapiens, UniProt Q9BRS2); details: kinase RIOK1; for remaining activity at 1 µM: read-out: RIOK1 (% of control at 1 µM)
T2 construct: purchased Ambit Biosciences (scanMAXX KINOMEscan)
T2 sequence (Q9BRS2 1-568): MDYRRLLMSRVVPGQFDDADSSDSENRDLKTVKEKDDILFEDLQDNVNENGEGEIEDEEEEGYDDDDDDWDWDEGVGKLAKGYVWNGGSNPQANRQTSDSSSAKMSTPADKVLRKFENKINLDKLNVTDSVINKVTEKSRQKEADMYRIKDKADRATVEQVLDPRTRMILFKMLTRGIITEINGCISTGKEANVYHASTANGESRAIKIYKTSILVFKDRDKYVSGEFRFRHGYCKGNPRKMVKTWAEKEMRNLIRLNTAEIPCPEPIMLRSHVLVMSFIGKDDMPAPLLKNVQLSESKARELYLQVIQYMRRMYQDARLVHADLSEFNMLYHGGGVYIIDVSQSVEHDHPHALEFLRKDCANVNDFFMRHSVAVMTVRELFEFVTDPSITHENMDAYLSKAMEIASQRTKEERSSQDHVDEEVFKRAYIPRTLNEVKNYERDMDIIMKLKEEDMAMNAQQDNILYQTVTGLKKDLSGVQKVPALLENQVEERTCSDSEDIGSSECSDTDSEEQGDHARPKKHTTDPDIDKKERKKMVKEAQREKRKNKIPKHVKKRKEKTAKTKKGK

panel of 442 kinases [3] = molecular target: T3, panel of 442 kinases (Homo sapiens, UniProt Q9NRM7); details: kinase LATS2; for remaining activity at 1 µM: read-out: % of control at 1 µM
T3 construct: purchased Ambit Biosciences (scanMAXX KINOMEscan)
T3 sequence (Q9NRM7 1-1088): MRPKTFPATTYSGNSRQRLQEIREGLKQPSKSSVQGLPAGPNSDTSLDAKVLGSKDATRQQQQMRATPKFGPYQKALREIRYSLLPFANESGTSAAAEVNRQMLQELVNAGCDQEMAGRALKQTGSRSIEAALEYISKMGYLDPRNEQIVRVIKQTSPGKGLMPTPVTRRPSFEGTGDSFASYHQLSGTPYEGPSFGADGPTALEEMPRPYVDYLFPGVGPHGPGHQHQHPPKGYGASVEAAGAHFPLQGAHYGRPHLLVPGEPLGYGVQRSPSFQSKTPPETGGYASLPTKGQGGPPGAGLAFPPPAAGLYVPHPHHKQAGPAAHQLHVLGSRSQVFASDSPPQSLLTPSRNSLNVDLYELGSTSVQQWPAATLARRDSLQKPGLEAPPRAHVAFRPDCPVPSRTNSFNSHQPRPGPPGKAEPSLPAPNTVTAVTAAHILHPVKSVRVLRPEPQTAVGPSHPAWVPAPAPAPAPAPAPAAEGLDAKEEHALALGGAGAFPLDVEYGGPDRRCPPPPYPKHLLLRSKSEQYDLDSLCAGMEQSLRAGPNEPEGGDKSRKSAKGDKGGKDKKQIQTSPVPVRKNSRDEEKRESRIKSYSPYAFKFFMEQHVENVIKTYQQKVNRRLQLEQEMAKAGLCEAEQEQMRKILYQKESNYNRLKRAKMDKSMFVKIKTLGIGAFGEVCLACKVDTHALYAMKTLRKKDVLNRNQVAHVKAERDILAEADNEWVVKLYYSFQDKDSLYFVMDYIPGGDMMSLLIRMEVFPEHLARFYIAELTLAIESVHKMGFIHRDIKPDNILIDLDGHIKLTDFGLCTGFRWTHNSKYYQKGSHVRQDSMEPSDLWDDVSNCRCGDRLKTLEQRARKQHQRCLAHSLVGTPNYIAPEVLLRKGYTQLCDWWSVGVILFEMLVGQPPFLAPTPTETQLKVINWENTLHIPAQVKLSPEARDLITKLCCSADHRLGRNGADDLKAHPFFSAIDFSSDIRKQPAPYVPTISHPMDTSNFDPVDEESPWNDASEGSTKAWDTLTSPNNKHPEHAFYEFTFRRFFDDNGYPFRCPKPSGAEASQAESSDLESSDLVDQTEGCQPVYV

panel of 442 kinases [4] = molecular target: T4, panel of 442 kinases (Homo sapiens, UniProt Q9NY57); details: kinase YANK2; for remaining activity at 1 µM: read-out: YANK2 (% of control at 1 µM)
T4 construct: purchased Ambit Biosciences (scanMAXX KINOMEscan)
T4 sequence (Q9NY57 whole entry): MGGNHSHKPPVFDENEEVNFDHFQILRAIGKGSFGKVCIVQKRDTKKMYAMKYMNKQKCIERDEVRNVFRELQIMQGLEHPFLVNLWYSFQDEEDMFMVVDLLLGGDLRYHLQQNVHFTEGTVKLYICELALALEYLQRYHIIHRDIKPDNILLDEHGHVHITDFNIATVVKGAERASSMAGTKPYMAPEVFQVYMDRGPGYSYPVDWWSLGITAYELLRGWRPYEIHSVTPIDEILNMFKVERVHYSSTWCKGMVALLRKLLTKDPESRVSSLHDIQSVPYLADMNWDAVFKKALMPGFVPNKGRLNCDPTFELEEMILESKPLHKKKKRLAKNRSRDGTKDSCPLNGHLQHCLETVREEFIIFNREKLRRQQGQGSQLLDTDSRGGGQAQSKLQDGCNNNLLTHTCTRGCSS

Nc1cc(C(F)(F)F)c(-c2cc(N3CCOCC3)nc(N3CCOCC3)n2)cn1 [Buparlisib]
remaining activity at 1 µM (panel of 442 kinases [1]): 97%
remaining activity at 10 µM (panel of 442 kinases [1]; 10 µM, read-out: PRKCE (% of control at 10 µM)): 100%
remaining activity at 1 µM (panel of 442 kinases [2]): 89%
remaining activity at 10 µM (panel of 442 kinases [2]; 10 µM, read-out: RIOK1 (% of control at 10 µM)): 81%
remaining activity at 1 µM (panel of 442 kinases [3]): 75%
remaining activity at 10 µM (panel of 442 kinases [3]; 10 µM, read-out: % of control at 10 µM): 100%
remaining activity at 1 µM (panel of 442 kinases [4]): 100%
remaining activity at 10 µM (panel of 442 kinases [4]; 10 µM, read-out: YANK2 (% of control at 10 µM)): 100%

Cn1c(=O)n(-c2ccc(C(C)(C)C#N)cc2)c2c3cc(-c4cnc5ccccc5c4)ccc3ncc21 [Dactolisib, 2-methyl-2-[4-(3-methyl-2-oxo-8-quinolin-3-yl-2,3-dihydroimidazo[4,5-c]quinolin-1-yl)-phenyl] propionitrile]
remaining activity at 1 µM (panel of 442 kinases [1]): 78%
remaining activity at 1 µM (panel of 442 kinases [2]): 66%
remaining activity at 1 µM (panel of 442 kinases [3]): 100%
remaining activity at 1 µM (panel of 442 kinases [4]): 96%

COc1ncc(-c2ccc3nccc(-c4ccnnc4)c3c2)cc1NS(=O)(=O)c1ccc(F)cc1F [Omipalisib]
remaining activity at 1 µM (panel of 442 kinases [1]): 100%
remaining activity at 1 µM (panel of 442 kinases [2]): 100%
remaining activity at 1 µM (panel of 442 kinases [3]): 100%
remaining activity at 1 µM (panel of 442 kinases [4]): 100%

FC(F)c1nc2ccccc2n1-c1nc(N2CCOCC2)nc(N2CCOCC2)n1 [ZSTK474, 2-(difluoromethyl)-1-[4,6-di(4-morpholinyl)-1,3,5-triazin-2-yl]-1H-benzimidazole]
remaining activity at 1 µM (panel of 442 kinases [1]): 100%
remaining activity at 1 µM (panel of 442 kinases [2]): 84%
remaining activity at 1 µM (panel of 442 kinases [3]): 100%
remaining activity at 1 µM (panel of 442 kinases [4]): 100%
